Assay results published in patent US4346076A, “Bis-tetrazoylmethyl substituted cephalosporin antibiotics” (Eli Lilly and Company, priority 1980, dated 1982).
In brackets after ≈: the same amount, converted by molar mass. Like-named read-outs stand apart in the source and are kept apart here.

Columns and labels:
[1] = tested on: Bordetella bronchoseptica; assay: in vitro antibacterial activity, agar dilution; type: cell-based; details: strain 16, read-out: Minimum Inhibitory Concentration
Source text: (§1) The bis-tetrazol-thiomethyl substituted cephalosporins of this invention are broad spectrum antibiotics which inhibit the growth of both gram positive and gram negative microorganisms which are pathogenic to man and animals. […] The following Table 2 lists the minimum inhibitory concentrations of representative compounds of the invention.
(§2) The data in TABLE 2 were obtained in the agar dilution test method using Mueller-Hinton agar containing two percent Supplement C (Difco). Serial two-fold dilutions were run with the highest concentration on test at 128 mcg/ml.

Citrobacter freundii = assay: in vitro antibacterial activity, agar dilution; type: cell-based; details: strain CF17, read-out: Minimum Inhibitory Concentration
Source text: as §1, §2

Enterobacter aerogenes = assay: in vitro antibacterial activity, agar dilution; type: cell-based; details: Klebsiella aerogenes, read-out: Minimum Inhibitory Concentration
Source text: as §1, §2

Enterobacter cloacae = assay: in vitro antibacterial activity, agar dilution; type: cell-based
Source text: as §1, §2

Escherichia coli = assay: in vitro antibacterial activity, agar dilution; type: cell-based
Source text: as §1, §2

Haemophilus influenzae = assay: in vitro antibacterial activity, agar dilution; type: cell-based
Source text: as §1, §2

Klebsiella sp. = assay: in vitro antibacterial activity, agar dilution; type: cell-based
Source text: as §1, §2

Proteus inconstans = assay: in vitro antibacterial activity, agar dilution; type: cell-based; details: Providencia alcalifaciens, read-out: Minimum Inhibitory Concentration
Source text: as §1, §2

Proteus morganii = assay: in vitro antibacterial activity, agar dilution; type: cell-based; details: Morganella morganii; strain PR15; read-out: Minimum Inhibitory Concentration
Source text: as §1, §2

Proteus rettgeri = assay: in vitro antibacterial activity, agar dilution; type: cell-based
Source text: as §1, §2

Pseudomonas aeruginosa = assay: in vitro antibacterial activity, agar dilution; type: cell-based
Source text: as §1, §2

Salmonella sp. = assay: in vitro antibacterial activity, agar dilution; type: cell-based
Source text: as §1, §2

Serratia marcescens = assay: in vitro antibacterial activity, agar dilution; type: cell-based
Source text: as §1, §2

Shigella sonnei = assay: in vitro antibacterial activity, agar dilution; type: cell-based; details: strain N9, read-out: Minimum Inhibitory Concentration
Source text: as §1, §2

Staphylococcus aureus = assay: in vitro antibacterial activity, agar dilution; type: cell-based
Source text: as §1, §2

[2] = tested on: Staphylococcus epidermidis; assay: in vitro antibacterial activity, agar dilution; type: cell-based
Source text: as §1, §2

Streptococcus Group A = assay: in vitro antibacterial activity, agar dilution; type: cell-based; details: strain C203; read-out: Minimum Inhibitory Concentration
Source text: as §1, §2

Streptococcus Group D = assay: in vitro antibacterial activity, agar dilution; type: cell-based; details: read-out: Minimum Inhibitory Concentration
Source text: as §1, §2

Streptococcus pneumoniae = assay: in vitro antibacterial activity, agar dilution; type: cell-based; details: strain PARK, read-out: Minimum Inhibitory Concentration
Source text: as §1, §2

Escherichia coli (EC14) = assay: in vivo activity in infected mice; details: sc, doses at 1 and 5 hours post infection
Description: (§3) Compound E (TABLE 2), a preferred compound of the invention, was administered to mice infected with various pathogens to determine the compound's effective dose (ED50). Listed below in TABLE 3 are the ED50 values determined with the indicated infectious organism. | ^1 Subcutaneous doses at 1 and 5 hours post infection

Proteus vulgaris (PV2S) = assay: in vivo activity in infected mice; details: sc, doses at 1 and 5 hours post infection
Description: as §3

[3] = tested on: Serratia marcescens (SE3); assay: in vivo activity in infected mice; details: sc, doses at 1 and 5 hours post infection
Description: as §3

[4] = tested on: Staphylococcus aureus (3055); assay: in vivo activity in infected mice; details: sc, doses at 1 and 5 hours post infection
Description: as §3

[5] = tested on: Streptococcus pyogenes (C203); assay: in vivo activity in infected mice; details: sc, doses at 1 and 5 hours post infection
Description: as §3

[6] = tested on: ampicillin-resistant Haemophilus influenzae; assay: treatment of ampicillin-resistant Haemophilus influenzae meningitis in infant rats; type: in vivo
[7] = levels in cerebro-spinal fluid of rats; type: in vivo; details: 20 mg/kg s.c.
[8] = read-out: Minimum Inhibitory Concentration

In the case of CO/N=C(\C(=O)N[C@@H]1C(=O)N2C(C(=O)O)=C(CSc3nnnn3Cc3nnn[nH]3)CS[C@H]12)c1csc(N)n1 [Compound E, syn 7β-[α-methoximino-α-(2-amino-1,3-thiazol-4-yl)-acetamido]-3-[1-(1H-tetrazol-5-ylmethyl)-1H-tetrazol-5-ylthiomethyl]-3-cephem-4-carboxylic acid], the MIC [1] is reported as 32 µg/mL (≈ 55.2 µM), the MIC (Citrobacter freundii) is reported as 32 µg/mL (≈ 55.2 µM) and the MIC (Enterobacter aerogenes; strain C32) is reported as 0.25 µg/mL (≈ 0.431 µM). For the same compound, the MIC (Enterobacter aerogenes; strain EB17) was 0.25 µg/mL (≈ 0.431 µM), the MIC (Enterobacter aerogenes; strain X68) was 0.06 µg/mL (≈ 0.104 µM) and the MIC (Enterobacter cloacae; strain 265A, read-out: Minimum Inhibitory Concentration) was 64 µg/mL (≈ 110 µM). It also gave an MIC (Enterobacter cloacae; strain EB5, read-out: Minimum Inhibitory Concentration) of 2 µg/mL (≈ 3.45 µM), an MIC (Escherichia coli; [8]) of 0.125 µg/mL (≈ 0.216 µM) and an MIC (Escherichia coli; strain EC14, read-out: Minimum Inhibitory Concentration) of 0.06 µg/mL (≈ 0.104 µM). For the same compound, the MIC (Escherichia coli; strain N10, read-out: Minimum Inhibitory Concentration) was 0.25 µg/mL (≈ 0.431 µM), the MIC (Haemophilus influenzae; Haemophilus influenzae, read-out: Minimum Inhibitory Concentration) was 0.125 µg/mL (≈ 0.216 µM) and the “Minimum Inhibitory Concentration” value (Haemophilus influenzae; strain 251, resistant strain) was “.125 µg/mL”. It also gave an MIC (Klebsiella sp.; strain KAE, read-out: Minimum Inhibitory Concentration) of 16 µg/mL (≈ 27.6 µM), an MIC (Klebsiella sp.; strain X26, read-out: Minimum Inhibitory Concentration) of 0.06 µg/mL (≈ 0.104 µM) and an MIC (Proteus inconstans) of 0.125 µg/mL (≈ 0.216 µM). For the same compound, the MIC (Proteus morganii) was 0.06 µg/mL (≈ 0.104 µM), the MIC (Proteus rettgeri; Providencia rettgeri, read-out: Minimum Inhibitory Concentration) was 0.125 µg/mL (≈ 0.216 µM) and the “Minimum Inhibitory Concentration” value (Proteus rettgeri; strain C24) was “.125 µg/mL”. For the same compound, the MIC (Pseudomonas aeruginosa; strain Ps18, read-out: Minimum Inhibitory Concentration) was 8 µg/mL (≈ 13.8 µM), the MIC (Pseudomonas aeruginosa; strain X239, read-out: Minimum Inhibitory Concentration) was 16 µg/mL (≈ 27.6 µM) and the MIC (Pseudomonas aeruginosa; strain X528, read-out: Minimum Inhibitory Concentration) was 8 µg/mL (≈ 13.8 µM). For the same compound, the MIC (Salmonella sp.; strain 1335, read-out: Minimum Inhibitory Concentration) was 0.25 µg/mL (≈ 0.431 µM), the MIC (Salmonella sp.; strain X514, read-out: Minimum Inhibitory Concentration) was 0.125 µg/mL (≈ 0.216 µM) and the MIC (Serratia marcescens; strain SE3, read-out: Minimum Inhibitory Concentration) was 1 µg/mL (≈ 1.73 µM). The MIC (Serratia marcescens; strain X93, read-out: Minimum Inhibitory Concentration) was 0.25 µg/mL (≈ 0.431 µM), the MIC (Shigella sonnei) was 0.125 µg/mL (≈ 0.216 µM) and the MIC (Staphylococcus aureus; [8]) was 16 µg/mL (≈ 27.6 µM). It also gave an MIC (Staphylococcus aureus; strain V41, read-out: Minimum Inhibitory Concentration) of 8 µg/mL (≈ 13.8 µM), an MIC (Staphylococcus aureus; strain X1.1, read-out: Minimum Inhibitory Concentration) of 4 µg/mL (≈ 6.9 µM) and an MIC (Staphylococcus aureus; strain X400, read-out: Minimum Inhibitory Concentration) greater than 128 µg/mL. The MIC ([2]; strain EPI1, read-out: Minimum Inhibitory Concentration) was 16 µg/mL (≈ 27.6 µM), the MIC ([2]; strain EPI2, read-out: Minimum Inhibitory Concentration) was 64 µg/mL (≈ 110 µM) and the MIC (Streptococcus Group A) was 0.06 µg/mL (≈ 0.104 µM). The MIC (Streptococcus Group D; strain 9960) was 16 µg/mL (≈ 27.6 µM), the MIC (Streptococcus Group D; strain X66) was greater than 128 µg/mL and the MIC (Streptococcus pneumoniae) was 0.03 µg/mL (≈ 0.0518 µM). It also gave an ED50 (Escherichia coli (EC14)) of 0.16 mg/kg, an ED50 (Proteus vulgaris (PV2S)) of 0.12 mg/kg and an ED50 [3] of 1 mg/kg. The ED50 [4] was 7.6 mg/kg, the ED50 [5] was 0.21 mg/kg and the “effectiveness in treatment of meningitis” value [6] was “effective in the treatment”. For the same compound, the “levels in the cerebro-spinal fluid” value [7] was “present in effective levels”.
